# Patent publication US8937072B2, “Substituted cyanoaniline compounds, preparation and use thereof” (Sinochem Corporation, priority 2011, dated 2015)
# Key:
# cucumber gray mold = test: Activity in vitro (96-well, High Through Put): inhibition rate against cucumber gray mold; type: cell-based; details: for inhibition rate against cucumber gray mold: in vitro, dose 0.9 mg/L
# Method: The method is as followed: High Through Put is used in the test. The compound is dissolved in a proper solvent to become a testing solution whose concentration is designed. The solvent is selected from acetone, methanol, DMF and so on according to their dissolving capability to the sample. In a no animalcule condition, the testing solution and pathogens suspension are added into the cells of 96 cells culture board, which then should be placed in the constant temperature box. 24 hours later, pathogen germination or growth can be investigated by eyeballing, and the activity in vitro of the compound is evaluated based on germination or growth of control treatment.
# cucumber downy mildew = test: Protectant activity in vivo (whole plant) against cucumber downy mildew
# Method: (§1) The method is as followed: The whole plant is used in this test. The compound is dissolved in a proper solvent to get mother solution. The proper solvent is selected from acetone, methanol, DMF and so on according to their dissolving capability to the sample. The volume rate of solvent and testing solution (v/v) is equal to or less than 5%. The mother solution is diluted with water containing 0.1% tween-80 to get the testing solution whose concentration is designed. The testing solution is sprayed to the host plant by a special plant sprayer. The plant is inoculated with fungus after 24 hours. According to the infecting characteristic of fungus, the plant is stored in a humidity chamber and then transferred into greenhouse after infection is finished. And the other plants are placed in greenhouse directly. The activity of compound is obtained by eyeballing after 7 days in common.
# corn rust = test: Protectant activity in vivo (whole plant) against corn rust; details: for protectant activity against corn rust in vivo: dose 400 mg/L
# Method: as §1
# rice blast = test: microbe, parasite or virus in culture; type: cell-based; details: for the inhibition rate against rice blast (%) 0.03 mg/L: Table 21, 0.03 mg/L; for the inhibition rate against rice blast (%) 0.1 mg/L: Table 21, 0.1 mg/L; for the inhibition rate against rice blast (%) 0.3 mg/L: Table 21, 0.3 mg/L
Compound,protectant activity against cucumber downy mildew in vivo (cucumber downy mildew; dose 50 mg/L),protectant activity against cucumber downy mildew in vivo (cucumber downy mildew; dose 100 mg/L),protectant activity against cucumber downy mildew in vivo (cucumber downy mildew; dose 400 mg/L),protectant activity against corn rust in vivo (corn rust),the inhibition rate against rice blast (%) 0.03 mg/L (rice blast),the inhibition rate against rice blast (%) 0.1 mg/L (rice blast),the inhibition rate against rice blast (%) 0.3 mg/L (rice blast),other results
N#Cc1c(Cl)c(Cl)c(Nc2ccc([N+](=O)[O-])cc2Cl)c(Cl)c1C#N [Compound A-15],100%,100%,100%,100%,–,–,–,the inhibition rate against cucumber gray mold (%) (cucumber gray mold; 0.3 mg/L): 100%; the inhibition rate against cucumber gray mold (%) (cucumber gray mold; 0.9 mg/L): 100%; the inhibition rate against cucumber gray mold (%) (cucumber gray mold; 2.8 mg/L): 100%; the inhibition rate against cucumber gray mold (%) (cucumber gray mold; 8.3 mg/L): 100%
N#Cc1c(Cl)c(Cl)c(Nc2ccc(C(F)(F)F)cc2Cl)c(C#N)c1Cl [Compound B-28],98%,100%,100%,–,80%,100%,100%,the protectant activity (%) against cucumber downy mildew (cucumber downy mildew; 12.5 mg/L): 20%; the protectant activity (%) against cucumber downy mildew (cucumber downy mildew; 25 mg/L): 80%; the protectant activity (%) against cucumber downy mildew (cucumber downy mildew; 50 mg/L): 98%; the protectant activity (%) against cucumber downy mildew (cucumber downy mildew; 100 mg/L): 100%
N#Cc1c(Cl)c(Cl)c(Nc2cc(C(F)(F)F)ccc2F)c(C#N)c1Cl [Compound B-30],–,–,–,–,0%,50%,100%,–
N#Cc1c(Cl)c(Cl)c(Nc2ccc(Cl)cc2[N+](=O)[O-])c(C#N)c1Cl [Compound B-39],–,–,100%,–,0%,80%,100%,–
N#Cc1c(Cl)c(Cl)c(Nc2c(Br)cc([N+](=O)[O-])cc2Br)c(C#N)c1Cl [Compound B-57],100%,100%,100%,100%,–,–,–,the inhibition rate against cucumber gray mold (%) (cucumber gray mold; 0.9 mg/L): 80%; the inhibition rate against cucumber gray mold (%) (cucumber gray mold; 2.8 mg/L): 100%; the inhibition rate against cucumber gray mold (%) (cucumber gray mold; 8.3 mg/L): 100%; the protectant activity (%) against cucumber downy mildew (cucumber downy mildew; 12.5 mg/L): 30%; the protectant activity (%) against cucumber downy mildew (cucumber downy mildew; 25 mg/L): 100%; the protectant activity (%) against cucumber downy mildew (cucumber downy mildew; 50 mg/L): 100%; the protectant activity (%) against cucumber downy mildew (cucumber downy mildew; 100 mg/L): 100%; protectant activity against cucumber downy mildew in vivo (cucumber downy mildew; dose 25 mg/L): 100%; the protectant activity (%) against corn rust (corn rust; 6.25 mg/L): 60%; the protectant activity (%) against corn rust (corn rust; 25 mg/L): 80%; the protectant activity (%) against corn rust (corn rust; 100 mg/L): 85%; the protectant activity (%) against corn rust (corn rust; 400 mg/L): 100%
Cc1c(Cl)c([N+](=O)[O-])cc([N+](=O)[O-])c1Nc1c(Cl)c(Cl)c(C#N)c(Cl)c1C#N [Compound B-68],–,100%,100%,–,–,–,–,inhibition rate against cucumber gray mold (cucumber gray mold): 80%
N#Cc1c(Cl)c(Cl)c(Nc2nc(Cl)c(Cl)cc2Cl)c(C#N)c1Cl [Compound B-128],98%,100%,100%,–,100%,100%,100%,–
COc1ccc(Nc2c(Cl)c(C#N)c(Cl)c(Cl)c2C#N)cc1 [Compound C-14],–,–,–,–,–,–,–,"inhibition rate against rice blast (rice blast; in vitro, dose 8.3 mg/L): 80%"
N#Cc1c(Cl)c(Cl)c(C#N)c(Nc2ccc([N+](=O)[O-])cc2F)c1Cl [Compound C-27],100%,100%,100%,–,–,–,–,inhibition rate against cucumber gray mold (cucumber gray mold): 80%; protectant activity against cucumber downy mildew in vivo (cucumber downy mildew; dose 25 mg/L): 100%
N#Cc1c(Cl)c(Cl)c(C#N)c(Nc2ccc(Cl)cc2[N+](=O)[O-])c1Cl [Compound C-33],–,–,100%,100%,–,–,–,–
